# Molecular target: T1, RPS6KA4 (MSK2) (Homo sapiens, UniProt O75676)
# T1 construct: purchased Thermo Fisher Scientific (Life Technologies) SelectScreen
# Assay: SelectScreen Z'LYTE
# Type: biochemical
# How it was run: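 SelectScreen broad panel; activity (Z'LYTE, Adapta) plus binding formats. ATP: Km app for CSF1R Z'LYTE; 10 for CAMK1 Adapta. Readout = % per kinase.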
# T1 sequence (O75676 whole entry): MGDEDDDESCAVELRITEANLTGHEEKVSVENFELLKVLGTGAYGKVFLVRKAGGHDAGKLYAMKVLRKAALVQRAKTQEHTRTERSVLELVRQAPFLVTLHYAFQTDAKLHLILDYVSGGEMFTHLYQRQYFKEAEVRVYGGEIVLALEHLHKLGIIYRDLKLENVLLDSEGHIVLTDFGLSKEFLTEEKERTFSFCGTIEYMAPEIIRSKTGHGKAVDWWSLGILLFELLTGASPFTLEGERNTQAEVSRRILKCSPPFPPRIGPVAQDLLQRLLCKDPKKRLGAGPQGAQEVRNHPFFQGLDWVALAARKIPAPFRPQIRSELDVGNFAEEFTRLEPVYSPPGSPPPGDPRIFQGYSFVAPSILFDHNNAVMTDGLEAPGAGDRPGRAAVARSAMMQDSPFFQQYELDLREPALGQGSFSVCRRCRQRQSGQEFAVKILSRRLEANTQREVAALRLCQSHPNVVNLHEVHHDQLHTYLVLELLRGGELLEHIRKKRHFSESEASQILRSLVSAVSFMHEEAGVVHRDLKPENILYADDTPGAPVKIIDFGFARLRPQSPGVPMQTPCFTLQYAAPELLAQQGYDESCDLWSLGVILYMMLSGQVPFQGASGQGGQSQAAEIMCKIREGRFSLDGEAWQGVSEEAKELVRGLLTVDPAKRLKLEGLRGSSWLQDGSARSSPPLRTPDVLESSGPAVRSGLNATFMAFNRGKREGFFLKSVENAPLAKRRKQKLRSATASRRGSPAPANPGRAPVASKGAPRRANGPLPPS
smiles,measurement,value
CN(C(=O)CN1CCOCC1)c1ccc2sc3c(-c4cccc5c(=O)cc(N6CC7CCC(C6)O7)oc45)cccc3c2c1 [NU5455],inhibition at 1 µM,4.2%

# From paper PMC6934184, “Selective DNA-PKcs inhibition extends the therapeutic index of localized radiotherapy and chemotherapy” (The Journal of Clinical Investigation, 2019)
